In patent publication US7402696B2, “Benzene compounds” (Ajinomoto Co., Inc., priority 2004, dated 2008):

Molecular target: T1, ACC (acetyl CoA carboxylase) purified from liver of male SD rat (Rattus norvegicus, UniProt P11497)
T1 construct: applied to a monomeric avidin sepharose column, and washed with buffer B. The ACC was eluted with buffer B containing 2 mM d-biotin; from tissue; host or cells: liver of male SD rat
Assay: Measurement of ACC inhibition activity ([14C]-NaHCO3 incorporation)
Type: biochemical
Conditions: ACC inhibition activity rate at 1 μM; Table 2-III, Mode 3 acetylene/oxadiazole/thiazole compounds (numbers = x-III); read-out: ACC Inhibition (%)
How it was run: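 Enzyme was avidin-purified from livers of rats fasted and then sucrose-fed. Compounds were preincubated with ACC for 30 min at 37° C in Tris-HCl pH 7.5 with MgCl2, citrate and DTT. [14C]-NaHCO3 solution with 8 mM ATP and 0.5 mM acetyl CoA was added for 10 min at 37° C. Acid-stable 14C gave % inhibition at 1 μM.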

| inhibition at 1 µM | Structure (SMILES) |
| --- | --- |
| 60% | CC(C)c1ccc(S(=O)(=O)NC(=O)c2ccc3c(c2)CN(c2cccc(-c4csc(-c5ccccc5)n4)c2)C3)cc1 [compound 118] |
| 88% | CC(C)c1ccc(S(=O)(=O)NC(=O)C(Cc2ccccc2)NC(=O)Nc2ccc(-c3csc(-c4ccccc4)n3)cc2)cc1 (stereo not drawn) [compound 130] |

Further lines, the compound ahead of its results:

| Structure (SMILES) | inhibition at 1 µM |
| --- | --- |
| O=C(O)c1ccccc1C(=O)Nc1ccc(-c2csc(-c3cc(C(F)(F)F)ccc3F)n2)cc1 [compound 99] | 52% |
| O=C(Nc1ccc(-c2csc(-c3ccccc3)n2)cc1)N[C@H](Cc1ccccc1)C(=O)O [compound 103] | 63% |
| O=C(O)CCC(NC(=O)OCc1ccccc1)C(=O)Nc1ccc(-c2csc(-c3ccccc3)n2)cc1 (stereo not drawn) [compound 104] | 66% |
| CC(C)c1ccc(S(=O)(=O)NC(=O)c2ccc(-c3csc(-c4ccc(C#Cc5cccc(C(F)(F)F)c5)cc4)n3)cc2)cc1 [compound 105] | 99% |
| CC(C)c1ccc(S(=O)(=O)NC(=O)c2cccc(-c3nc(-c4ccc(-c5csc(-c6ccc(C(F)(F)F)cc6)n5)cc4)no3)c2)cc1 [compound 106] | 97% |
| CC(C)c1ccc(S(=O)(=O)NC(=O)c2ccc(-c3nc(-c4ccc(-c5csc(-c6ccc(C(F)(F)F)cc6)n5)cc4)no3)cc2)cc1 [compound 107] | 100% |

Same assay, conditions: ACC inhibition activity rate at 1 μM; Table 3-I, Mode 1 quinoline compounds (numbers = x-I); read-out: ACC Inhibition (%)

| inhibition at 1 µM | Structure (SMILES) |
| --- | --- |
| 45% | CCCCS(=O)(=O)NC(=O)CC(NC(=O)c1ccc2nc(-c3cc(C(F)(F)F)cc(C(F)(F)F)c3)ccc2c1)c1cccc(N)c1 (stereo not drawn) [compound 102] |
| 50% | CCCCCC(=O)NS(=O)(=O)c1ccccc1NC(=O)c1ccc2nc(-c3cc(C(F)(F)F)cc(C(F)(F)F)c3)c(CCCl)cc2c1 [compound 103] |
| 90% | CCCCCC(=O)NS(=O)(=O)c1ccccc1NC(=O)c1ccc2nc(-c3cc(C(F)(F)F)ccc3F)ccc2c1 [compound 107] |
| 61% | CCCCCC(=O)NS(=O)(=O)c1ccccc1NC(=O)c1ccc2nc(-c3cccc(SC(F)(F)F)c3)ccc2c1 [compound 109] |
| 50% | CCCCCC(=O)NS(=O)(=O)c1ccccc1NC(=O)c1ccc2nc(-c3cccc(C(F)(F)F)c3F)ccc2c1 [compound 110] |
| 97% | CC(C)c1ccc(S(=O)(=O)NC(=O)c2ccccc2-c2csc(-c3ccc4nc(-c5cc(C(F)(F)F)cc(C(F)(F)F)c5)ccc4c3)n2)cc1 [compound 115] |

Same assay, conditions: ACC inhibition activity rate at 1 μM; Table 4-IV, Mode 4 benzenediamine compounds (numbers = x-IV); read-out: ACC Inhibition (%)

| inhibition at 1 µM | Structure (SMILES) |
| --- | --- |
| 100% | CSc1ccccc1CNc1cc(-c2noc(-c3cccc(C(=O)NS(=O)(=O)c4ccccc4)c3)n2)ccc1N(C)CCC(C)C [compound 115] |
| 93% | Cc1ccccc1S(=O)(=O)NC(=O)CC(NC(=O)c1ccc(N(C)CCC(C)C)c(N(C)Cc2ccccc2)c1)C1CCCCC1 (stereo not drawn) [compound 118] |
| 94% | Cc1ccccc1S(=O)(=O)NC(=O)CC(NC(=O)c1ccc(N(C)CCC(C)C)c(N(C)CC2CCCCC2)c1)C1CCCCC1 (stereo not drawn) [compound 119] |
| 90% | CC(C)CCN(C)c1ccc(C(=O)NC(CC(=O)NS(=O)(=O)c2ccccc2)c2ccccc2)cc1N(C)Cc1ccccc1 (stereo not drawn) [compound 121] |
| 67% | Cc1ccccc1S(=O)(=O)NC(=O)CC(NC(=O)c1ccc(N(C)CCC(C)C)c(NCc2ccccc2O)c1)C1CCCCC1 (stereo not drawn) [compound 122] |
| 64% | Cc1ccccc1S(=O)(=O)NC(=O)CC(NC(=O)c1ccc(N(C)CCC(C)C)c(NCc2ccccc2[N+](=O)[O-])c1)C1CCCCC1 (stereo not drawn) [compound 124] |
| 98% | Cc1ccccc1S(=O)(=O)NC(=O)CC(NC(=O)c1ccc(N(C)CCC(C)C)c(NCCc2ccccc2)c1)C1CCCCC1 (stereo not drawn) [compound 125] |
| 91% | Cc1ccccc1S(=O)(=O)NC(=O)CC(NC(=O)c1ccc(N(C)CCC(C)C)c(NCC2CCCC2)c1)C1CCCCC1 (stereo not drawn) [compound 126] |
| 92% | Cc1ccccc1S(=O)(=O)NC(=O)c1cccc(-c2nc(-c3ccc(N(C)CCC(C)C)c(N4Cc5ccccc5C4=O)c3)no2)c1 [compound 127] |
| 100% | Cc1ccccc1S(=O)(=O)NC(=O)c1cccc(-c2nc(-c3ccc(N(C)CCC(C)C)c(N4COc5ccccc5C4)c3)no2)c1 [compound 128] |
| 100% | Cc1ccccc1S(=O)(=O)NC(=O)c1cccc(-c2nc(-c3ccc(N(C)CCC(C)C)c(NCc4ccccc4[N+](=O)[O-])c3)no2)c1 [compound 129] |

Further lines, the compound ahead of its results:

| Structure (SMILES) | inhibition at 1 µM |
| --- | --- |
| CC(C)CCN(C)c1ccc(-c2noc(-c3cccc(C(=O)NS(=O)(=O)c4ccccc4)c3)n2)cc1NCc1ccccc1O [compound 97] | 98% |
| COc1cccc(CNc2cc(-c3noc(-c4cccc(C(=O)NS(=O)(=O)c5ccccc5)c4)n3)ccc2N(C)CCC(C)C)c1 [compound 98] | 100% |
| CC(C)CCN(C)c1ccc(-c2noc(-c3cccc(C(=O)NS(=O)(=O)c4ccccc4)c3)n2)cc1NCc1cccc(C(=O)O)c1 [compound 100] | 72% |
| CC(C)CCN(C)c1ccc(-c2noc(-c3cccc(C(=O)NS(=O)(=O)c4ccccc4)c3)n2)cc1NCc1cccc(F)c1 [compound 101] | 100% |
| CC(C)CCN(C)c1ccc(-c2noc(-c3cccc(C(=O)NS(=O)(=O)c4ccccc4)c3)n2)cc1NCc1ccc2ccccc2c1 [compound 102] | 100% |
| Cc1ccccc1S(=O)(=O)NC(=O)c1cccc(-c2nc(-c3ccc(N(C)CCC(C)C)c(NCc4ccccc4)c3)no2)c1 [compound 103] | 100% |
| CC(C)CCN(C)c1ccc(-c2noc(-c3cccc(C(=O)NS(=O)(=O)c4ccccc4)c3)n2)cc1NC(C)c1ccccc1 (stereo not drawn) [compound 106] | 100% |
| Cc1ccccc1S(=O)(=O)NC(=O)c1cccc(-c2nc(-c3ccc(N(C)CCC(C)C)c(NC(C)c4ccccc4)c3)no2)c1 (stereo not drawn) [compound 107] | 100% |
| CC(C)CCN(C)c1ccc(C(=O)NC(CC(=O)NS(=O)(=O)c2ccccc2)c2ccccc2)cc1NCc1ccccc1 (stereo not drawn) [compound 112] | 75% |
| CC(C)CCN(C)c1ccc(-c2noc(-c3cccc(C(=O)NS(=O)(=O)c4ccccc4)c3)n2)cc1NCc1ccc(OCCO)cc1 [compound 113] | 97% |
| CC(C)CCN(C)c1ccc(-c2noc(-c3cccc(C(=O)NS(=O)(=O)c4ccccc4)c3)n2)cc1NCc1cc(O)cc(O)c1 [compound 114] | 77% |
